Among the data in the OligoGym collection are target mRNA inhibition values, retold here.

In this data set the target is HSD17B13. The settings on record: ASO, HepaRG.

After the bases stand the sugars from the 5' end (letter, count) and the backbone: PS all phosphorothioate, else s phosphorothioate and o phosphodiester by linkage. Methylation of C is not given here. e = 2'-O-(2-methoxyethyl) (MOE); k = constrained ethyl (cEt); d = 2'-deoxy (DNA); m = 2'-O-methyl

As to ATCATATGCTAAGTGC (sugars k3 d10 k3, PS), the target mRNA inhibition came to 0% (0.02 µM); 11% (0.078 µM); 48% (0.313 µM); 73% (1 µM); 71% (1.25 µM); 82% (5 µM).

For the setting “1 µM”, ATCAATTTATCATACC (sugars k3 d10 k3, PS) gave a target mRNA inhibition of 11%.

ACATTGCAGTTATTAG (sugars k3 d10 k3, PS) gave a target mRNA inhibition (1 µM) of 42%.

For the setting “1 µM”, “TGAACAGTCTTAAACC (sugars k3 d1 m1 d8 k3, PS)” registered a target mRNA inhibition of 57%.

Under “1 µM”, “TACAGATTGGAATGCT (sugars k3 d9 k3 e1, PS)” registered a target mRNA inhibition of 66%.

The sequence GTTTCTAGGTCAGTAG (sugars k3 d10 k3, PS) had a target mRNA inhibition (1 µM) of 73%.

As to CACTAATCTCAGTACT (sugars k3 d10 k3, PS), the target mRNA inhibition (1 µM) worked out at 48%.

Where the note is “1 µM”, CACACTAATGAATCAT (sugars k3 d10 k3, PS) returned a target mRNA inhibition of 30%.

Under “1 µM”, AATTTGTGAACCTGCA (sugars k3 d10 k3, PS) showed a target mRNA inhibition of 20%.

AAGGACTTTCATAGGG (sugars k3 d10 k3, PS) returned a target mRNA inhibition (1 µM) of 71%.

Sequence CTTTAGTCAACAGTAC (sugars k3 d10 k3, PS) yielded a target mRNA inhibition (1 µM) of 12%.

Where the note is “1 µM”, “CTAGTGCCAAACCAAT (sugars kkdddddddddkekek, PS)” yielded a target mRNA inhibition of 47%.

AAGGATTTCTAGGATG (sugars k3 d10 k3, PS) showed a target mRNA inhibition (1 µM) of 71%.

As to GTTTCTTATGTAATAG (sugars k3 d10 k3, PS), the target mRNA inhibition (1 µM) was 46%.

Under “1 µM”, GATGGTAAGGAGTAGT (sugars k3 d10 k3, PS) showed a target mRNA inhibition of 28%.

Consider TGATATACGATGGAAC (sugars k3 d10 k3, PS), for which, where the note is “1 µM”, the target mRNA inhibition worked out at 13%.

“GTTCTTGTTGATATTC (sugars k3 d9 k3 e1, PS)” returned a target mRNA inhibition (1 µM) of 69%.

In turn, GTGGCCATGATTTCTC (sugars k3 d10 k3, PS) displayed a target mRNA inhibition (1 µM) of 40%.

GTCCAGAAGTATGTGA (sugars k3 d10 k3, PS) yielded a target mRNA inhibition (1 µM) of 9%.

With ACAATCTCCCCAGCCA (sugars k3 d10 k3, PS), the target mRNA inhibition (1 µM) was 67%.

Take AGCTAAGTATACTTTC (sugars k3 d10 k3, PS): the target mRNA inhibition (1 µM) was 18%.

The sequence GCTGAGAGAGTATTTC (sugars k3 d10 k3, PS) registered a target mRNA inhibition (1 µM) of 51%.

GCATAAGAGATGAGTA (sugars k3 d10 k3, PS): the target mRNA inhibition (1 µM) is 33%.

The sequence “GAATAGCAAGCCAACA (sugars kkdddddddddkekek, PS)” showed a target mRNA inhibition (1 µM) of 27%.

“TTACAGCATCAAGACA (sugars k3 d1 m1 d8 k3, PS)” showed a target mRNA inhibition (1 µM) of 46%.

In turn, TTTTTGAACCGTATTC (sugars k3 d10 k3, PS) had a target mRNA inhibition (1 µM) of 56%.

“AAACAAGAGGATAGTC (sugars kkdddddddddkekek, PS)” gave a target mRNA inhibition (1 µM) of 52%.

The sequence GGTAAGCCCCATGCCA (sugars k3 d10 k3, PS) returned a target mRNA inhibition (1 µM) of 38%.

Turning to AAGACAGACCAAGTAG (sugars k3 d10 k3, PS), for the setting “1 µM”, the target mRNA inhibition came to 16%.

For the sequence CTGCATTAATGCCACC (sugars k3 d10 k3, PS), the target mRNA inhibition (0.02 µM) came to 0%; the target mRNA inhibition (0.078 µM) was determined as 0%; the target mRNA inhibition (0.313 µM) is 17%; the target mRNA inhibition (1 µM) turned out to be 67%; the target mRNA inhibition (1.25 µM) was determined as 40%; the target mRNA inhibition (5 µM) stood at 81%.

The sequence TAAAATAGAGTCGGTC (sugars k3 d10 k3, PS) came in with a target mRNA inhibition (0.02 µM) of 1%; a target mRNA inhibition (0.078 µM) of 9%; a target mRNA inhibition (0.313 µM) of 47%; a target mRNA inhibition (1 µM) of 81%; a target mRNA inhibition (1.25 µM) of 80%; a target mRNA inhibition (5 µM) of 90%.

For the setting “1 µM”, TAATCACAAGTAAGGT (sugars k3 d10 k3, PS) returned a target mRNA inhibition of 54%.

For the sequence CTCTGGGACCAAGGAT (sugars k3 d10 k3, PS), the target mRNA inhibition (1 µM) was determined as 51%.

In turn, ATAGTAATTGCTATAG (sugars k3 d10 k3, PS) yielded a target mRNA inhibition (1 µM) of 36%.

Turning to CGGCAAATTTGCTGGA (sugars k3 d10 k3, PS), for the setting “1 µM”, the target mRNA inhibition was found to be 29%.

As to CTCTTTTTATAGACTG (sugars k3 d10 k3, PS), where the note is “1 µM”, the target mRNA inhibition was 63%.

On to TATGAGTAAAGATCTA (sugars k3 d10 k3, PS), for which, where the note is “1 µM”, the target mRNA inhibition was 10%.

“ATAGAGTCGGTCACCT (sugars k3 d9 k3 e1, PS)” yielded a target mRNA inhibition (1 µM) of 67%.

The sequence ACACTAATTTAGTCAA (sugars k3 d10 k3, PS) came in with a target mRNA inhibition (1 µM) of 16%.

Regarding “CAGTCTTAAACCTTCC (sugars kkdddddddddkekek, PS)”, where the note is “1 µM”, the target mRNA inhibition turned out to be 51%.

Sequence GACAGTTGAGTAGTGT (sugars k3 d10 k3, PS) registered a target mRNA inhibition (1 µM) of 46%.

In the case of “TGCATCTTAAGATACC (sugars k3 d9 k3 e1, PS)”, where the note is “1 µM”, the target mRNA inhibition stood at 37%.

Sequence TTTCGCTACTGTAGGC (sugars k3 d10 k3, PS) showed a target mRNA inhibition (1 µM) of 62%.

“CTGCTAGTGCCAAACC (sugars k3 d9 k3 e1, PS)” yielded a target mRNA inhibition (1 µM) of 67%.

For ACCAATGCAGTTTGTA (sugars k3 d10 k3, PS), the target mRNA inhibition is, setting by setting: (0.02 µM) 6%; (0.078 µM) 0%; (0.313 µM) 32%; (1 µM) 75%; (1.25 µM) 80%; (5 µM) 90%.

AAATGAGGCGGCACTC (sugars k3 d10 k3, PS) displayed a target mRNA inhibition (1 µM) of 20%.

Turning to “CTAAACATCTCTGGGA (sugars k3 d9 k3 e1, PS)”, the target mRNA inhibition (1 µM) was 57%.

On to CCAATTTAAATCAGGC (sugars k3 d10 k3, PS), for which the target mRNA inhibition runs as follows: (0.02 µM) 0%; (0.078 µM) 17%; (0.313 µM) 52%; (1 µM) 73%; (1.25 µM) 72%; (5 µM) 89%.

For CACTCAGCTGCAGTTT (sugars k3 d10 k3, PS), the target mRNA inhibition (1 µM) was found to be 13%.

ATTGTTAGCTAAGGGA (sugars k3 d10 k3, PS): the target mRNA inhibition (1 µM) amounted to 22%.

Regarding AGAAGTATGTGAACTC (sugars k3 d10 k3, PS), under “1 µM”, the target mRNA inhibition was determined as 41%.

GAATACGCTGAGAGTT (sugars k3 d10 k3, PS) came in with a target mRNA inhibition (1 µM) of 11%.

TAATAGCCAGTACAGT (sugars k3 d10 k3, PS) returned a target mRNA inhibition (1 µM) of 64%.

For the setting “1 µM”, GATGTCAGACCTCTGT (sugars k3 d10 k3, PS) showed a target mRNA inhibition of 6%.

With CACTGCCAGATTGCAC (sugars k3 d10 k3, PS), the target mRNA inhibition (1 µM) is 38%.

Take CTGATTAATCTTGATG (sugars k3 d10 k3, PS): under “1 µM”, the target mRNA inhibition came out at 32%.

The sequence CTTCTCTTGGGTCCAT (sugars k3 d10 k3, PS) displayed a target mRNA inhibition (1 µM) of 51%.

Turning to GACAACAAACAATGGG (sugars k3 d10 k3, PS), the target mRNA inhibition (1 µM) was 39%.

In turn, AGAATAGAGTTGCACC (sugars k3 d10 k3, PS) yielded a target mRNA inhibition (1 µM) of 70%.
